Values joined by “and” are separate entries in the source; they are usually repeats but may differ in a detail not shown here. Equal entries are not always repeated.
How the values were obtained:
[1] = tested on: passively transferred EAE; test: Passively transferred experimental autoimmune encephalomyelitis (EAE); format: in vivo, Lewis rats; settings: for Clinical Scores (individual rats): 45 mg/kg/day by mini-osmotic pump; for Clinical Scores (individual rats) / Mean Score: scale 0 to 5
Method: To study the effect of the present agents in vivo on a disease that includes in its pathogenesis the migration of T lymphocytes into a specific tissue, the brain, experiments were performed in the Lewis rat model of passively transferred EAE. MBP-specific T lymphocyte cell lines were generated from the draining LNs of Lewis rats that had been immunized with MBP in CFA essentially according to the method of Ben-Nun et al., 1981, supra. Donor T lymphocytes were generated from female 10 to 12 week old Lewis rats weighing 150 to 200 g. These rats had been injected intradermally in each hind footpad with an emulsion of guinea pig MBP (gpMBP) prepared according to Deibler, G E et al., […]. Biochem. 2:139-165 (1972), incorporated herein by reference) in CFA ([…]). The adjuvant emulsion was prepared by emulsifying equal volumes of a mixture of light mineral oil (Sigma) and a solution of the gpMBP in normal saline (0.5 mg/ml) and Mycobacterium butyricum (4 mg/ml; Difco). Thus, each rat received was 50 μg of MBP and 400 μg of M. butyricum. Approximately 11 days following injection the rats were euthanized and the draining LNs (popliteal and inguinal) were removed aseptically by blunt dissection and placed into lymphocyte culture medium as described above. A single cell suspension was prepared from the LNs as described above for spleen. The cells were washed twice in culture medium and any red blood cells were lysed with ammonium chloride as above. These cells, at concentration of 5×10^6/ml were cultured for 72 hours in the presence of MBP (0.06 mg/ml) at 37° C. in a humidified atmosphere containing 7.5% carbon dioxide. The cells were collected and the lymphoblasts were isolated by centrifugation on a Ficoll (Pharmacia, Uppsala, Sweden) gradient in an identical manner to that described by Ben Nun et al. supra. The fraction containing 90% lymphoblasts was cultured further in complete DMEM to which was added (15% v/v) a culture supernatant containing a mixture of growth factors (supernatant of concanavalin A-stimulated lymphocytes), 10% fetal calf serum, nonessential amino acids (Bio-Lab, Jerusalem, Israel). No antigen (MBP) was added. The cells were originally plated in 100 mm petri dishes at a concentration of 2×10^5 cells/mil and replated every 3 or 4 days. Prior to transfer into Lewis rat recipients, the cells were restimulated with antigen, MBP (0.01 mg/ml), and irradiated syngeneic thymocytes, as antigen-presenting cells, for 4 days. These cultured, stimulated T lymphocytes were highly encephalitogenic: as few as 5×10^5 cells could induced disease in naïve Lewis rats. In a typical experiment, a group of 5 female Lewis rats, approximately 9 weeks old, weighing 110±15 grams was anesthetized with diethyl ether and implanted with mini-osmotic pumps (Alzet 2002, Alza Corp., Palo Alto Calif., USA) containing 1-(2,4,-diimethyl phenyl)-6-phosphono-mannoside dissolved in normal saline at a concentration that delivered the drug at a rate of 45 mg/kg/day. A second group of 5 control animals were implanted under anesthesia with a similar pump containing normal saline. Just prior to recovering from the anesthetic, each animal received 5×10^5 cells of the above encephalitogenic T cell line iv in 0.2 ml of normal saline. […] The severity of EAE for each group of rats was calculated as a Disease Index (DI) which is (for those animals developing disease): [formula] This calculation allows a more complete assessment of the disease by incorporating both speed of onset and clinical severity and duration of the disease. […] In an identically designed experiment, rats were sacrificed on day 6 after T lymphocyte transfer and their spinal cords were harvested for histological assessment. Rats were deeply anesthetized (Nembutal) and perfused with 30 ml saline followed by 60 ml 10% neutral buffered formalin. Spinal cords were removed, fixed for 7 days in 10% formalin and embedded for sectioning. […]

[2] = tested on: passively transferred adjuvant-induced arthritis; test: Passively transferred adjuvant arthritis; format: in vivo, DA rats; settings: for swelling in the affected joints at the end of the treatment period: controls severe swelling
Method: The experiment in this Example was designed to study the effect of the agents of the present invention in vivo on a disease that requires T lymphocyte migration into a specific tissue (synovium). Male DA rats, 8 to 10 week old, were immunized with three 100 μl injections of CFA intradermally at the base of the tail. The CFA was prepared by mixing 8 mg/ml of M. butyricum (Difco Laboratories, USA) that had been ground to a fine powder using a mortar and pestle, in 85% light mineral oil (Sigma, USA) and 15% mannide monooleate (Sigma) and emulsifying this suspension, one part in one part saline. Thus, the final emulsion contained 4 mg/ml of M. butyricum. Ten days after immunization, the rats were euthanized and their spleens removed aseptically. A single cell suspension in lymphocyte culture medium with 10% FCS was prepared as described above and adjusted to a concentration of 2×10^6 cells/ml. Con A was added at a final concentration of 2 μg/ml. The cells were cultured at 37° C. in an atmosphere of 5% carbon dioxide for 72 hours. Groups of 4 or 5 DA rats, 6 to 8 weeks of age were anesthetized with diethyl ether and implanted sc on the flank with Alzet 2002 (“2 week delivery”) or Alzet 2001 (“1 week delivery”) mini-osmotic pumps (Alza Corp., Palo Alto Calif., USA). One treatment group received 1-(2,4,-diimethyl phenyl)-6-phosphono-mannoside in the one week delivery Alzet 2001 mini-osmotic pumps. The drug was delivered at a dose of 25 mg/kg/day. The control group for this experiment received identical mini-osmotic pumps containing normal saline. In a second experiment another group of DA rats received 1-(2,4,-diimethyl phenyl)-6-phosphono-mannoside in the “2 week delivery” Alzet 2002 mini-osmotic pumps. This drug was delivered at a dose of 37 mg/kg/day. Control animals for this group received saline delivered in identical mini-osmotic pumps. While the animals were recovering from anesthesia, the above cultured lymphocytes which had been harvested and washed twice in HBSS were resuspended in normal saline and injected iv (lateral tai vein) into recipient rats, each of which received 75-90×10^6 cells in 0.5 ml. After 5 to 8 days, a characteristic thickening and cutaneous hyperemia of the distal joints of the hind legs became clinically apparent in saline treated control animals. Disease severity was evaluated and graded in each group by daily measurement of the mediolateral widths of both ankle joints. The data were expressed as the mean of the change (compared with width prior to cell injection) in mediolateral ankle width expressed in millimeters (±standard error of the mean).

[3] = 45 mg/kg/day, vs saline controls

Question: What does the source list for `Cc1ccc(O[C@H]2O[C@H](CCP(=O)(O)O)[C@@H](O)[C@H](O)[C@@H]2O)c(C)c1`?
Answer: animals that developed disease ([1]; 45 mg/kg/day, control 5/5): 3/5; DI = Group Disease Index ([1]; 45 mg/kg/day, control group DI 160): 40; duration of maximum clinical scores ([1]; 45 mg/kg/day, controls two consecutive days): none of the 3 drug treated animals that developed symptoms had maximum clinical scores for more than one day; disease onset [1, 3]: disease onset was delayed; disease severity [1, 3]: disease severity was lower than that observed in the controls; Clinical Scores (individual rats) ([1]; Day 4): 0; Mean Score ([1]; Day 4, 45 mg/kg/day): 0; Clinical Scores (individual rats) ([1]; Day 5, listed as 1-(2,4,-dimethyl phenyl)-6-phosphono-mannoside, 45 mg/kg/day): 1 (3×) and 0 (2×); Mean Score ([1]; Day 5, 45 mg/kg/day): 0.6; Clinical Scores (individual rats) ([1]; Day 6, listed as 1-(2,4,-dimethyl phenyl)-6-phosphono-mannoside, 45 mg/kg/day): 2 (2×) and 0 (2×) and 1; Mean Score ([1]; Day 6, 45 mg/kg/day): 1; Clinical Scores (individual rats) ([1]; Day 7, listed as 1-(2,4,-dimethyl phenyl)-6-phosphono-mannoside, 45 mg/kg/day): 0 (3×) and 1 (2×); Mean Score ([1]; Day 7, 45 mg/kg/day): 0.4; lesions/section in the most affected animal ([1]; day 6 after T lymphocyte transfer, histology): no more than 8 lesions/section; average number of spinal cord lesions ([1]; day 6 after T lymphocyte transfer, histology, control approximately 15 lesions/section): 3.5 lesions; difference in disease status of treated versus control animals ([2]; 25 mg/kg/day, end of one week treatment): highly statistically significant difference; swelling in the affected joints at the end of the treatment period ([2]; 25 mg/kg/day, one week delivery Alzet 2001 pump): little swelling; difference in disease status of treated versus control animals ([2]; 37 mg/kg/day, end of two week treatment): highly statistically significant difference; swelling in the affected joints at the end of the treatment period ([2]; 37 mg/kg/day, two week delivery Alzet 2002 pump): little swelling
